Experimental data published in US7635716B2, “Substituted cyclopentanes or cyclopentanones as therapeutic agents” (Allergan, Inc., priority 2005, dated 2009).
Read-outs that look alike come from different tables or passages of the source.

Tests used:
[1] = target: hEP2 (Homo sapiens, UniProt P43116); test: Competition binding, [3H]PGE2, HEK 293 cells stably expressing human EP2 receptors; design: expressed in transfected cells; host or cells: HEK 293 cells (membranes or whole cells)
Experimental: Competition binding experiments were performed in a medium containing Hank's balanced salt solution, Hepes 20 mM, pH 7.3, membranes (˜60 μg protein) or 2×10^5 cells from HEK 293 cells stably expressing human EP2 receptors, [^3H]PGE2 (10 nM) and various concentrations of test compounds in a total volume of 300 μL. Reaction mixtures were incubated at 23° C. for 60 min, and were filtered over Whatman GF/B filters under vacuum. Filters were washed three times with 5 ml ice-cold buffer containing 50 mM Tris/HCl (pH 7.3). Non-specific binding was estimated in the presence of excess unlabeled PGE2 (10 μM). Binding data fitted to the binding model for a single class of binding sites, using nonlinear regression analysis. IC50 values thus obtained were converted to Ki using the equation of Ki=(IC50/(1+[L]/KD) where [L] represents PGE2 concentration (10 nM) and KD the dissociation constant for [^3H]PGE2 at human EP2 receptors (40 nM).
(§1) HEK-293 cells stably expressing the human or feline FP receptor, or EP1, EP2, or EP4 receptors were washed with TME buffer, scraped from the bottom of the flasks, and homogenized for 30 sec using a Brinkman PT 10/35 polytron. TME buffer was added to achieve a final 40 ml volume in the centrifuge tubes (the composition of TME is 100 mM TRIS base, 20 mM MgCl2, […]; 10N HCl is added to achieve a pH of 7.4).
(§2) The cell homogenate was centrifuged at 19000 r.p.m. for 20 min at 4° C. using a Beckman Ti-60 rotor. The resultant pellet was resuspended in TME buffer to give a final 1 mg/ml protein concentration, as determined by Biorad assay. Radioligand binding competition assays vs. [^3H—]17 phenyl PGF2. (5 nM) were performed in a 100 μl volume for 60 min. Binding reactions were started by adding plasma membrane fraction. The reaction was terminated by the addition of 4 ml ice-cold TRIS-HCl buffer and rapid filtration through glass fiber GF/B filters using a Brandel cell harvester. The filters were washed 3 times with ice-cold buffer and oven dried for one hour.
(§3) [^3H—] PGE2 (specific activity 180 Ci mmol) was used as the radioligand for EP receptors. [^3H] 17-phenyl PGF2α was employed for FP receptor binding studies. Binding studies employing EP1, EP2, EP4 and FP receptors were performed in duplicate in at least three separate experiments. A 200 μl assay volume was used. Incubations were for 60 min at 25° C. and were terminated by the addition of 4 ml of ice-cold 50 mM TRIS-HCl, followed by rapid filtration through Whatman GF/B filters and three additional 4 ml washes in a cell harvester (Brandel). Competition studies were performed using a final concentration of 5 nM [^3H]-PGE2, or 5 nM [^3H] 17-phenyl PGF2α and non-specific binding determined with 10^−5M of unlabeled PGE2, or 17-phenyl PGF2α, according to receptor subtype studied.

[2] = target: T1, hEP4 (Homo sapiens, UniProt P35408); test: Radioligand binding, [3H]PGE2, HEK-293 cells stably expressing EP4 receptors
T1 construct: expressed in transfected cells; host or cells: HEK-293 cells (plasma membrane fraction)
Experimental: as §1, §2
as §3, with “Binding studies employing EP1, EP2, EP4 and FP receptors were performed in duplicate in at least three separate experiments.” left out

[3] = Table 1, first part, triplicate, read-out: binding data (Ki) hEP2
[4] = Table 1, first part, triplicate, read-out: binding data (Ki) hEP4
[5] = Table 1, second part, read-out: hEP4 Ki
[6] = Table 1, second part, read-out: hEP2 Ki

hEP2, sequence (P43116 whole entry): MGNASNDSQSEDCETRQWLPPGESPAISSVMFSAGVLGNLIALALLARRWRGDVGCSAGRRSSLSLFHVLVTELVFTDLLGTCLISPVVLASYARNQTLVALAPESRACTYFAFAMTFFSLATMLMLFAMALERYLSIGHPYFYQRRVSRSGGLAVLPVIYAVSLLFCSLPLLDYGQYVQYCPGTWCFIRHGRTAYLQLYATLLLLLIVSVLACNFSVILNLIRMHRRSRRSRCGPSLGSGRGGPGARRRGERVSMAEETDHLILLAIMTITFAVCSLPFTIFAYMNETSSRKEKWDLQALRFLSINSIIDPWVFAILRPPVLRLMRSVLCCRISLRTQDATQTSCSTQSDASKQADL
T1 sequence (P35408 whole entry): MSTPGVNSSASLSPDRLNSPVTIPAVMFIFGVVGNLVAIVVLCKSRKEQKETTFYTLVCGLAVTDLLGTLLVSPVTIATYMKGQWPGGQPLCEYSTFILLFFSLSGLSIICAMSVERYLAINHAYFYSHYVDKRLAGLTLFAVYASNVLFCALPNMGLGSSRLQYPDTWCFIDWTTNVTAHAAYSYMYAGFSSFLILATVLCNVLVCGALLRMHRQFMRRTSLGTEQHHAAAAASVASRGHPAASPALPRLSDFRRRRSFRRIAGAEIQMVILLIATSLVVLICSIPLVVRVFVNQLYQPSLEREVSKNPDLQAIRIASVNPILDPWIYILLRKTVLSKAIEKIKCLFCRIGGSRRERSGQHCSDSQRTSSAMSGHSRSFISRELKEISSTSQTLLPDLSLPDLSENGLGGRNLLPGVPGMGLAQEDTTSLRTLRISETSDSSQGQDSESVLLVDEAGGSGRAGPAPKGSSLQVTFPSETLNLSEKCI

O=C(O)CCCCCC[C@H]1C(=O)CC[C@@H]1COc1ccccc1 [Example 6, 7-((1R,5S)-2-Oxo-5-phenoxymethyl-cyclopentyl)-heptanoic acid]
Ki [1, 3]: 6.25 µM | Ki [2, 4]: 2.65 µM

O=C(O)CCC/C=C\C[C@@H]1[C@@H](COc2ccccc2)[C@H](O)C[C@H]1Cl [Example 8, (Z)-7-((1R,2S,3R,5R)-5-Chloro-3-hydroxy-2-phenoxymethyl-cyclopentyl)-hept-5-enoic acid]
Ki [1, 3]: 1.26 µM | Ki [2, 4]: > 10 µM | Ki [2, 5]: > 10 µM

O=C(O)CCCCCC[C@@H]1[C@@H](COc2ccccc2)[C@H](O)C[C@H]1Cl [Example 10, 7-((1R,2S,3R,5R)-5-Chloro-3-hydroxy-2-phenoxymethyl-cyclopentyl)-heptanoic acid]
Ki [1, 3]: 1.7 µM | Ki [2, 4]: > 10 µM | Ki [2, 5]: > 10 µM

O=C(O)CCC/C=C\C[C@@H]1[C@@H](COc2cc(Cl)cc(Cl)c2)[C@H](O)C[C@H]1Cl [Example 12, (Z)-7-[(1R,2S,3R,5R)-5-Chloro-2-(3,5-dichloro-phenoxymethyl)-3-hydroxy-cyclopentyl]-hept-5-enoic acid]
Ki [1, 3]: 0.012 µM | Ki [1, 6]: 0.012 µM | Ki [2, 4]: 0.94 µM | Ki [2, 5]: 0.94 µM

O=C(O)CCCCCC[C@@H]1[C@@H](COc2cc(Cl)cc(Cl)c2)[C@H](O)C[C@H]1Cl [Example 14, 7-[(1R,2S,3R,5R)-5-Chloro-2-(3,5-dichloro-phenoxymethyl)-3-hydroxy-cyclopentyl]-heptanoic acid]
Ki [1, 3]: 0.076 µM | Ki [2, 4]: 3.04 µM

(Z)-7-((1R,2S,3R)-3-Hydroxy-5-oxo-2-phenoxymethyl-cyclopentyl)-hept-5-enoic acid [Example 4]
Ki [1, 3]: 13.4 µM | Ki [1, 6]: > 10 µM | Ki [2, 4]: > 10 µM | Ki [2, 5]: > 10 µM

(Z)-7-((1R,5S)-2-Oxo-5-phenoxymethyl-cyclopent-3-enyl)-hept-5-enoic acid [Example 3]
Ki [1, 3]: > 10 µM | Ki [1, 6]: 13.4 µM | Ki [2, 4]: > 10 µM | Ki [2, 5]: > 10 µM
